# Measured values as given in the supplement of paper PMC10307832.
# What was measured:
# Assay in all cases: relative viability (nuclei count vs DMSO), 5 days (fraction); higher = more cells survive
# A549 = tested on: A549
# Outline: (§1)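 One day after seeding in 1536-well plates, lung cancer cell lines were dosed by pin tool. Dosing was either single-drug or a fixed anchor-drug dose plus five library-drug doses (not always all listed) in √10 steps. After 5 days, nuclei were stained in one fix-and-stain step and counted on 4× images, and relative viability is the nuclei count of treated wells over that of vehicle wells, given as the median of duplicate plates.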
# ABC-1 = tested on: ABC-1
# Outline: as §1
# Calu-6 = tested on: Calu-6
# Outline: as §1
# EBC-1 = tested on: EBC-1
# Outline: as §1
# EKVX = tested on: EKVX
# Outline: as §1
# HCC-44 = tested on: HCC-44
# Outline: as §1
# IA-LM = tested on: IA-LM
# Outline: as §1
# NCI-H1299 = tested on: NCI-H1299
# Outline: as §1
# NCI-H1703 = tested on: NCI-H1703
# Outline: as §1
# NCI-H1993 = tested on: NCI-H1993
# Outline: as §1
# NCI-H2085 = tested on: NCI-H2085
# Outline: as §1
# NCI-H2126 = tested on: NCI-H2126
# Outline: as §1
# RERF-LC-KJ = tested on: RERF-LC-KJ
# Outline: as §1
smiles,measurement,setting,value
CC(=O)O[C@@]12CO[C@@H]1C[C@H](O)[C@@]1(C)C(=O)[C@H](O)C3=C(C)[C@@H](OC(=O)[C@H](O)[C@@H](NC(=O)OC(C)(C)C)c4ccccc4)C[C@@](O)([C@@H](OC(=O)c4ccccc4)[C@H]21)C3(C)C [Docetaxel] + C[C@@H](Oc1cc(-c2cnn(C3CCNCC3)c2)cnc1N)c1c(Cl)ccc(F)c1Cl [Crizotinib] (partner 1 µM),relative viability,A549; first compound 0.0002 µM,0.641
same,relative viability,A549; first compound 0.000632 µM,0.432
same,relative viability,A549; first compound 0.002 µM,0.0535
same,relative viability,A549; first compound 0.006325 µM,0.0545
same,relative viability,A549; first compound 0.02 µM,0.0485
same,relative viability,ABC-1; first compound 0.0002 µM,1.04
same,relative viability,ABC-1; first compound 0.000632 µM,0.78
same,relative viability,ABC-1; first compound 0.002 µM,0.274
same,relative viability,ABC-1; first compound 0.006325 µM,0.275
same,relative viability,ABC-1; first compound 0.02 µM,0.242
same,relative viability,Calu-6; first compound 0.0002 µM,0.805
same,relative viability,Calu-6; first compound 0.000632 µM,0.394
same,relative viability,Calu-6; first compound 0.002 µM,0.219
same,relative viability,Calu-6; first compound 0.006325 µM,0.159
same,relative viability,Calu-6; first compound 0.02 µM,0.105
same,relative viability,EBC-1; first compound 0.0002 µM,0.187
same,relative viability,EBC-1; first compound 0.000632 µM,0.146
same,relative viability,EBC-1; first compound 0.002 µM,0.167
same,relative viability,EBC-1; first compound 0.006325 µM,0.163
same,relative viability,EBC-1; first compound 0.02 µM,0.151
same,relative viability,EKVX; first compound 0.0002 µM,0.725
same,relative viability,EKVX; first compound 0.000632 µM,0.885
same,relative viability,EKVX; first compound 0.002 µM,0.432
same,relative viability,EKVX; first compound 0.006325 µM,0.25
same,relative viability,EKVX; first compound 0.02 µM,0.145
same,relative viability,HCC-44; first compound 0.0002 µM,0.805
same,relative viability,HCC-44; first compound 0.000632 µM,0.536
same,relative viability,HCC-44; first compound 0.002 µM,0.483
same,relative viability,HCC-44; first compound 0.006325 µM,0.195
same,relative viability,HCC-44; first compound 0.02 µM,0.12
same,relative viability,IA-LM; first compound 0.0002 µM,0.395
same,relative viability,IA-LM; first compound 0.000632 µM,0.145
same,relative viability,IA-LM; first compound 0.002 µM,0.0955
same,relative viability,IA-LM; first compound 0.006325 µM,0.078
same,relative viability,IA-LM; first compound 0.02 µM,0.0873
same,relative viability,NCI-H1299; first compound 0.0002 µM,0.972
same,relative viability,NCI-H1299; first compound 0.000632 µM,0.984
same,relative viability,NCI-H1299; first compound 0.002 µM,0.695
same,relative viability,NCI-H1299; first compound 0.006325 µM,0.392
same,relative viability,NCI-H1299; first compound 0.02 µM,0.305
same,relative viability,NCI-H1703; first compound 0.0002 µM,0.483
same,relative viability,NCI-H1703; first compound 0.000632 µM,0.379
same,relative viability,NCI-H1703; first compound 0.002 µM,0.226
same,relative viability,NCI-H1703; first compound 0.006325 µM,0.0913
same,relative viability,NCI-H1703; first compound 0.02 µM,0.133
same,relative viability,NCI-H1993; first compound 0.0002 µM,0.93
same,relative viability,NCI-H1993; first compound 0.000632 µM,0.787
same,relative viability,NCI-H1993; first compound 0.002 µM,0.791
same,relative viability,NCI-H1993; first compound 0.006325 µM,0.537
same,relative viability,NCI-H1993; first compound 0.02 µM,0.508
same,relative viability,NCI-H2085; first compound 0.0002 µM,0.63
same,relative viability,NCI-H2085; first compound 0.000632 µM,0.706
same,relative viability,NCI-H2085; first compound 0.002 µM,0.737
same,relative viability,NCI-H2085; first compound 0.006325 µM,0.415
same,relative viability,NCI-H2085; first compound 0.02 µM,0.317
same,relative viability,NCI-H2126; first compound 0.0002 µM,1.01
same,relative viability,NCI-H2126; first compound 0.000632 µM,1.03
same,relative viability,NCI-H2126; first compound 0.002 µM,0.632
same,relative viability,NCI-H2126; first compound 0.006325 µM,0.382
same,relative viability,NCI-H2126; first compound 0.02 µM,0.322
same,relative viability,RERF-LC-KJ; first compound 0.0002 µM,0.868
same,relative viability,RERF-LC-KJ; first compound 0.000632 µM,0.7
same,relative viability,RERF-LC-KJ; first compound 0.002 µM,0.509
same,relative viability,RERF-LC-KJ; first compound 0.006325 µM,0.196
same,relative viability,RERF-LC-KJ; first compound 0.02 µM,0.166
CC(=O)O[C@@]12CO[C@@H]1C[C@H](O)[C@@]1(C)C(=O)[C@H](O)C3=C(C)[C@@H](OC(=O)[C@H](O)[C@@H](NC(=O)OC(C)(C)C)c4ccccc4)C[C@@](O)([C@@H](OC(=O)c4ccccc4)[C@H]21)C3(C)C [Docetaxel] + C[C@]1(O)C[C@@H](c2nc(-c3ccc4ccc(-c5ccccc5)nc4c3)c3c(N)nccn32)C1 [Linsitinib] (partner 1 µM),relative viability,A549; first compound 0.0002 µM,0.578
same,relative viability,A549; first compound 0.000632 µM,0.372
same,relative viability,A549; first compound 0.002 µM,0.0857
same,relative viability,A549; first compound 0.006325 µM,0.0667
same,relative viability,A549; first compound 0.02 µM,0.036
same,relative viability,ABC-1; first compound 0.0002 µM,0.834
same,relative viability,ABC-1; first compound 0.000632 µM,1
same,relative viability,ABC-1; first compound 0.002 µM,0.424
same,relative viability,ABC-1; first compound 0.006325 µM,0.286
same,relative viability,ABC-1; first compound 0.02 µM,0.218
same,relative viability,Calu-6; first compound 0.0002 µM,0.819
same,relative viability,Calu-6; first compound 0.000632 µM,0.968
same,relative viability,Calu-6; first compound 0.002 µM,0.332
same,relative viability,Calu-6; first compound 0.006325 µM,0.142
same,relative viability,Calu-6; first compound 0.02 µM,0.0881
same,relative viability,EBC-1; first compound 0.0002 µM,0.776
same,relative viability,EBC-1; first compound 0.000632 µM,0.872
same,relative viability,EBC-1; first compound 0.002 µM,0.204
same,relative viability,EBC-1; first compound 0.006325 µM,0.271
same,relative viability,EBC-1; first compound 0.02 µM,0.129
same,relative viability,EKVX; first compound 0.0002 µM,0.899
same,relative viability,EKVX; first compound 0.000632 µM,0.804
same,relative viability,EKVX; first compound 0.002 µM,0.427
same,relative viability,EKVX; first compound 0.006325 µM,0.23
same,relative viability,EKVX; first compound 0.02 µM,0.115
same,relative viability,HCC-44; first compound 0.0002 µM,0.608
same,relative viability,HCC-44; first compound 0.000632 µM,0.747
same,relative viability,HCC-44; first compound 0.002 µM,0.589
same,relative viability,HCC-44; first compound 0.006325 µM,0.201
same,relative viability,HCC-44; first compound 0.02 µM,0.106
same,relative viability,IA-LM; first compound 0.0002 µM,0.351
same,relative viability,IA-LM; first compound 0.000632 µM,0.449
same,relative viability,IA-LM; first compound 0.002 µM,0.112
same,relative viability,IA-LM; first compound 0.006325 µM,0.0528
same,relative viability,IA-LM; first compound 0.02 µM,0.042
same,relative viability,NCI-H1299; first compound 0.0002 µM,0.905
same,relative viability,NCI-H1299; first compound 0.000632 µM,0.98
same,relative viability,NCI-H1299; first compound 0.002 µM,0.787
same,relative viability,NCI-H1299; first compound 0.006325 µM,0.432
same,relative viability,NCI-H1299; first compound 0.02 µM,0.255
same,relative viability,NCI-H1703; first compound 0.0002 µM,0.741
same,relative viability,NCI-H1703; first compound 0.000632 µM,1.15
same,relative viability,NCI-H1703; first compound 0.002 µM,0.258
same,relative viability,NCI-H1703; first compound 0.006325 µM,0.116
same,relative viability,NCI-H1703; first compound 0.02 µM,0.101
same,relative viability,NCI-H1993; first compound 0.0002 µM,0.796
same,relative viability,NCI-H1993; first compound 0.000632 µM,0.739
same,relative viability,NCI-H1993; first compound 0.002 µM,0.807
same,relative viability,NCI-H1993; first compound 0.006325 µM,0.605
same,relative viability,NCI-H1993; first compound 0.02 µM,0.488
same,relative viability,NCI-H2085; first compound 0.0002 µM,0.868
same,relative viability,NCI-H2085; first compound 0.000632 µM,0.888
same,relative viability,NCI-H2085; first compound 0.002 µM,0.652
same,relative viability,NCI-H2085; first compound 0.006325 µM,0.576
same,relative viability,NCI-H2085; first compound 0.02 µM,0.276
same,relative viability,NCI-H2126; first compound 0.0002 µM,0.747
same,relative viability,NCI-H2126; first compound 0.000632 µM,0.683
same,relative viability,NCI-H2126; first compound 0.002 µM,0.631
same,relative viability,NCI-H2126; first compound 0.006325 µM,0.402
same,relative viability,NCI-H2126; first compound 0.02 µM,0.291
same,relative viability,RERF-LC-KJ; first compound 0.0002 µM,0.864
same,relative viability,RERF-LC-KJ; first compound 0.000632 µM,0.826
same,relative viability,RERF-LC-KJ; first compound 0.002 µM,0.504
same,relative viability,RERF-LC-KJ; first compound 0.006325 µM,0.207
same,relative viability,RERF-LC-KJ; first compound 0.02 µM,0.145
